In patent US11559482B2, “Biodegradable polyethylene glycol based water-insoluble hydrogels” (Ascendis Pharma A/S, priority 2009, dated 2023):

Experiment: Injectability: force versus flow using a 30 G needle
Format: physicochemical
Conditions: 1 mL syringe
Procedure: 5 mL insulin-linker-hydrogel prodrug 29 (bead size distribution from 32-75 μm, 18 mg insulin/ml insulin-linker-hydrogel prodrug suspension) was buffer exchanged into pH 5.0 succinic acid/tris (10 mM, 40 g/L mannitol; 10 g/L trehalose dihydrate; 0.05% TWEEN-20). The insulin-linker-hydrogel prodrug suspension was filled into a 1 mL syringe (length 57 mm) via a 20 G needle. The 20 G needle was replaced by a 30 G needle and placed into the syringe mounting (Aqua Computer GmbH&Co. KG) and the measurement was started with a piston velocity of 172 mm/min (equals 50 μL/s) (Force test stand: Multitest 1-d, Data recording software: EvaluatEmperor Lite, Version 1.16-015, Forge Gauge: BFG 200 N (all Mecmesin Ltd., UK). Experiments with increasing piston velocities shown in the table below were carried out with a new insulin-linker-hydrogel prodrug sample. The experiments with water and ethylene glycol were carried out accordingly. For all of the experiments the same 30 G needle was used.

OCCO [ethylene glycol] gave a Force (flow 6 sec/mL, 167 μL/sec, piston velocity 573 mm/min) of 83 N, a Force (flow 8 sec/mL, 125 μL/sec, piston velocity 430 mm/min) of 62 N and a Force (flow 10 sec/mL, 100 μL/sec, piston velocity 344 mm/min) of 51 N. For the same molecule, the Force (flow 15 sec/mL, 67 μL/sec, piston velocity 229 mm/min) was 35 N and the Force (flow 20 sec/mL, 50 μL/sec, piston velocity 172 mm/min) was 27 N.
